# Data as given in US9006185B2, “Use of cell-permeable peptide inhibitors of the JNK signal transduction pathway for the treatment of various diseases” (Xigen Inflammation Ltd., priority 2008, dated 2015).
# Entries after “also recorded” stand apart in the source; their conditions may differ.
# Tests used:
# C57BL/6 mice = assay: Bleomycin induced lung fibrosis; format: in vivo; conditions: for histology: inflammatory cells accumulation, fibrotic areas, loss of lung architecture: day 10
# Description: In order to determine the activity of the exemplary all-D retro-inverso IB(s) peptide XG-102 (SEQ ID NO: 11) in the treatment of Chronic Obstructive Pulmonary Disease (COPD) XG-102 (SEQ ID NO: 11) is used in an animal model of Bleomycin induced acute lung inflammation and fibrosis. The protocol of bleomycin induced inflammation and fibrosis has been described before in the literature. The aim of the Experiment was to investigate the effect of XG-102 (SEQ ID NO: 11) by subcutaneous (s.c.) route on neutrophil recruitment in broncho alveolar lavage (BAL) and lung in bleomycin induced inflammation and fibrosis: • at 1 day after a single bleomycin administration (10 mg/kg) • and at day 10 with the development of fibrosis 1) Method and Experimental Approach • The test compound XG-102 (SEQ ID NO: 11) at two doses and vehicle control were given s.c. with a single intranasal administration of bleomycin and mice were analyzed after 1 and 10 days. The animals used in the model were 10 C57BL/6 mice (8 weeks old) per group. The experimental groups included vehicle, 0.001 mg/kg XG-102 (SEQ ID NO: 11) and 0.1 mg/kg XG-102 (SEQ ID NO: 11), and the treatment consisted of repeated sub-cutaneous administration of XG-102 (SEQ ID NO: 11), prior to bleomycin administration then every 3 days. Acute lung inflammation at 24 h was monitored by BAL lavage, cytology, cell counts, and lung myeloperoxidase activity. The effect of the compound was compared with vehicle controls. Lung fibrosis was assessed histologically using hematoxylin and eosin staining at day 10 after the single dose of bleomycin. […] 1.4) Cell Count and Determination • Total cell count was determined in BAL fluid using a Malassez hemocytometer. […] 1.5) TNF Measurement • TNF level in BALF was determined using ELISA assay kits (Mouse DuoSet, R&D system, Minneapolis, USA) according to manufacturer's instructions. […] 1.6) MPO-Measurement • MPO-levels were measured upon administration of XG-102. […]
smiles,measurement,setting,value
CC(C)C[C@@H](NC(=O)[C@@H](Cc1ccccc1)NC(=O)[C@H]1CCCN1C(=O)[C@@H](CCC(N)=O)NC(=O)[C@H](NC(=O)[C@H]1CCCN1C(=O)[C@@H](CCCNC(=N)N)NC(=O)[C@@H](CO)NC(=O)[C@@H](CCC(N)=O)NC(=O)[C@H](N)CC(=O)O)C(C)C)C(=O)N[C@H](CC(N)=O)C(=O)N[C@H](CC(C)C)C(=O)N[C@@H](C(=O)N[C@@H](C(=O)N1CCC[C@@H]1C(=O)N[C@H](CCCNC(=N)N)C(=O)N[C@H](CCCCN)C(=O)N1CCC[C@@H]1C(=O)N[C@H](CCCNC(=N)N)C(=O)N1CCC[C@@H]1C(=O)N1CCC[C@@H]1C(=O)N[C@H](CCCNC(=N)N)C(=O)N[C@H](CCCNC(=N)N)C(=O)N[C@H](CCCNC(=N)N)C(=O)N[C@H](CCC(N)=O)C(=O)N[C@H](CCCNC(=N)N)C(=O)N[C@H](CCCNC(=N)N)C(=O)N[C@H](CCCCN)C(=O)N[C@H](CCCCN)C(=O)N[C@H](CCCNC(=N)N)C(=O)NCC(=O)O)[C@H](C)O)[C@H](C)O [XG-102],lymphocyte recruitment and total cells in bronchioalveolar lavage space,"C57BL/6 mice; 0.001 mg/kg s.c., 3 times in 10 days",reduced significantly the lymphocyte recruitment and the number of total cells recruited
same,"histology: inflammatory cells accumulation, fibrotic areas, loss of lung architecture",C57BL/6 mice; high dose 0.1 mg/kg,not with the high dose
same,"histology: inflammatory cells accumulation, fibrotic areas, loss of lung architecture","C57BL/6 mice; low dose 0.001 mg/kg, 0.001 mg/kg",A decrease of these parameters was observed; also recorded: attenuates the Bleomycin-induced fibrosis
same,cytotoxicity at effective concentrations,murine macrophages,non-cytotoxic concentrations
same,"LPS-induced TNFa, IL-6 and Rantes release",murine macrophages; murine macrophages,"reducing LPS-induced TNFa, IL-6 and Rantes release in murine macrophages"
